In the supplement of paper PMC10307832:

Experiments:
Assay in all cases: relative viability (nuclei count vs DMSO), 5 days (fraction); higher = more cells survive
XMD13-2 + Foretinib = compound: C1CC1C(=O)NC2=NNC3=C2C=CC(=C3)C4=CC(=CC=C4)C(=O)NC5CC5 [XMD13-2] + COc1cc2c(Oc3ccc(NC(=O)C4(C(=O)Nc5ccc(F)cc5)CC4)cc3F)ccnc2cc1OCCCN1CCOCC1 [Foretinib] (partner 0.25 µM)
Method in brief: (§1)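 Nuclei were stained with Hoechst during a one-step fixation (final 0.05% Triton X-100, 1% formaldehyde, 1 ug/ml Hoechst) carried out 5 days after dosing, then counted on 4× images. The cells, lung cancer lines in 1536-well plates, had been dosed by pin tool the day after seeding with one drug alone or a fixed anchor-drug dose plus five library-drug doses (not always all listed) in √10 steps. Relative viability is the nuclei count in treated wells divided by that in vehicle wells, and each value is the median of duplicate plates.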

XMD13-2 + Phenformin = compound: C1CC1C(=O)NC2=NNC3=C2C=CC(=C3)C4=CC(=CC=C4)C(=O)NC5CC5 [XMD13-2] + N=C(N)NC(=N)NCCc1ccccc1 [Phenformin] (partner 250 µM)
Method in brief: as §1

[1] = compound: Cc1ccc(C(=O)Nc2cccc(C(F)(F)F)c2)cc1Nc1cncc(C(N)=O)c1 [ALW-II-49-7] + CC(=O)c1c(C)c2cnc(Nc3ccc(N4CCNCC4)cn3)nc2n(C2CCCC2)c1=O [Palbociclib] (partner 0.5 µM)
Method in brief: as §1

ALW-II-49-7 + Dasatinib = compound: Cc1ccc(C(=O)Nc2cccc(C(F)(F)F)c2)cc1Nc1cncc(C(N)=O)c1 [ALW-II-49-7] + Cc1nc(Nc2ncc(C(=O)Nc3c(C)cccc3Cl)s2)cc(N2CCN(CCO)CC2)n1 [Dasatinib] (partner 0.075 µM)
Method in brief: as §1

Cell Line UMC-11 has a relative viability (XMD13-2 + Foretinib; first compound 0.05 µM) of 1.23, a relative viability (XMD13-2 + Foretinib; first compound 0.1581 µM) of 1.09 and a relative viability (XMD13-2 + Foretinib; first compound 0.5 µM) of 1. It also gave a relative viability (XMD13-2 + Foretinib; first compound 1.581 µM) of 1.08, a relative viability (XMD13-2 + Foretinib; first compound 5 µM) of 1.06 and a relative viability (XMD13-2 + Phenformin; first compound 0.05 µM) of 0.362. For the same cell line, the relative viability (XMD13-2 + Phenformin; first compound 0.1581 µM) was 0.314, the relative viability (XMD13-2 + Phenformin; first compound 0.5 µM) was 0.337 and the relative viability (XMD13-2 + Phenformin; first compound 1.581 µM) was 0.317. For the same cell line, the relative viability (XMD13-2 + Phenformin; first compound 5 µM) was 0.285, the relative viability ([1]; first compound 0.08 µM) was 0.345 and the relative viability ([1]; first compound 0.253 µM) was 0.348. The relative viability ([1]; first compound 0.8 µM) was 0.33, the relative viability ([1]; first compound 2.53 µM) was 0.295 and the relative viability ([1]; first compound 8 µM) was 0.274. For the same cell line, the relative viability (ALW-II-49-7 + Dasatinib; first compound 0.08 µM) was 0.428, the relative viability (ALW-II-49-7 + Dasatinib; first compound 0.253 µM) was 0.453 and the relative viability (ALW-II-49-7 + Dasatinib; first compound 0.8 µM) was 0.473. The relative viability (ALW-II-49-7 + Dasatinib; first compound 2.53 µM) was 0.456 and the relative viability (ALW-II-49-7 + Dasatinib; first compound 8 µM) was 0.519.
